# Measured values as given in ChEMBL document CHEMBL1127180, “Synthesis and mechanistic studies of a tetrazole-tethered cephalosporin-quinolone hybrid” (1993).
# What was measured:
# Format in all cases: functional
# Citrobacter freundii [1] = test: Tested for in vitro antibacterial activity against Citrobacter freundii BS-16
# Enterobacter cloacae [2] = test: Tested for in vitro antibacterial activity against Enterobacter cloacae P99
# Escherichia coli [3] = test: Tested for in vitro antibacterial activity against Escherichia coli 257
# Escherichia coli [4] = test: Tested for in vitro antibacterial activity against Escherichia coli TEM-1
# Klebsiella pneumoniae [5] = test: Tested for in vitro antibacterial activity against Klebsiella pneumoniae A
# Pseudomonas aeruginosa [6] = test: Tested for in vitro antibacterial activity against Pseudomonas aeruginosa 18SH
# Pseudomonas aeruginosa [7] = test: Tested for in vitro antibacterial activity against Pseudomonas aeruginosa 5712
# Proteus vulgaris [8] = test: Tested for in vitro antibacterial activity against Proteus vulgaris ATCC 6380
# Staphylococcus aureus [9] = test: Tested for in vitro antibacterial activity against Staphylococcus aureus Smith
# Staphylococcus aureus [10] = test: Tested for in vitro antibacterial activity against Staphylococcus aureus 67
# Staphylococcus aureus [11] = test: Tested for in vitro antibacterial activity against Staphylococcus aureus 753
# Streptococcus pyogenes [12] = test: Tested for in vitro antibacterial activity against Streptococcus pyogenes 4
# Streptococcus pneumoniae [13] = test: Tested for in vitro antibacterial activity against Streptococcus pneumoniae 6301
# Citrobacter freundii [14] = test: Tested for in vitro antibacterial activity against Citrobacter freundii BS-16; inactive
# Enterobacter cloacae [15] = test: Tested for in vitro antibacterial activity against Enterobacter cloacae P99; inactive
# Escherichia coli [16] = test: Tested for in vitro antibacterial activity against Escherichia coli 257; inactive
# Escherichia coli [17] = test: Tested for in vitro antibacterial activity against Escherichia coli TEM-1; inactive
# Klebsiella pneumoniae [18] = test: Tested for in vitro antibacterial activity against Klebsiella pneumoniae A; inactive
# Pseudomonas aeruginosa [19] = test: Tested for in vitro antibacterial activity against Pseudomonas aeruginosa 18SH; inactive
# Pseudomonas aeruginosa [20] = test: Tested for in vitro antibacterial activity against Pseudomonas aeruginosa 5712; inactive
# Proteus vulgaris [21] = test: Tested for in vitro antibacterial activity against Proteus vulgaris ATCC 6380; inactive
# Staphylococcus aureus [22] = test: Tested for in vitro antibacterial activity against Staphylococcus aureus Smith; inactive
# Staphylococcus aureus [23] = test: Tested for in vitro antibacterial activity against Staphylococcus aureus 753; inactive
# Streptococcus pyogenes [24] = test: Tested for in vitro antibacterial activity against Streptococcus pyogenes 4; inactive
# Streptococcus pneumoniae [25] = test: Tested for in vitro antibacterial activity against Streptococcus pneumoniae 6301; inactive
# Staphylococcus aureus [26] = test: Tested for in vitro antibacterial activity against Staphylococcus aureus 67; inactive
SMILES,MIC (Citrobacter freundii [1]) [µg/mL],MIC (Enterobacter cloacae [2]) [µg/mL],MIC (Escherichia coli [3]) [µg/mL],MIC (Escherichia coli [4]) [µg/mL],MIC (Klebsiella pneumoniae [5]) [µg/mL],MIC (Pseudomonas aeruginosa [6]) [µg/mL],MIC (Pseudomonas aeruginosa [7]) [µg/mL],MIC (Proteus vulgaris [8]) [µg/mL],MIC (Staphylococcus aureus [9]) [µg/mL],MIC (Staphylococcus aureus [10]) [µg/mL],MIC (Staphylococcus aureus [11]) [µg/mL],MIC (Streptococcus pyogenes [12]) [µg/mL],MIC (Streptococcus pneumoniae [13]) [µg/mL],further results
O=C(O)c1cn(C2CC2)c2cc(N3CCN(C(=O)Cn4nnnc4S)CC3)c(F)cc2c1=O,4,2,2,2,32,32,128,4,32,64,64,64,64,–
O=C(O)c1cn(C2CC2)c2c(F)c(N3CCNCC3)c(F)cc2c1=O,0.0313,0.0078,0.0078,0.0156,0.25,0.25,1,0.0078,0.125,0.5,0.25,0.5,1,–
CO/N=C(/C(=O)NC1C(=O)N2C(C(=O)[O-])=C(CSc3nnnn3CC(=O)N3CCN(c4cc5c(cc4F)c(=O)c(C(=O)O)cn5C4CC4)CC3)CS[C@H]12)c1csc(N)n1.[Na+] (stereo partly drawn),32,16,4,2,2,128,> 128,4,4,64,128,≤ 0.0156,≤ 0.0156,–
O=C([O-])Cn1nnnc1[S-].[Na+].[Na+],–,–,–,–,–,–,–,–,–,–,–,–,–,MIC (Citrobacter freundii [14]): > 128 µg/mL; MIC (Enterobacter cloacae [15]): > 128 µg/mL; MIC (Escherichia coli [16]): > 128 µg/mL; MIC (Escherichia coli [17]): > 128 µg/mL; MIC (Klebsiella pneumoniae [18]): > 128 µg/mL; MIC (Pseudomonas aeruginosa [19]): > 128 µg/mL; MIC (Pseudomonas aeruginosa [20]): > 128 µg/mL; MIC (Proteus vulgaris [21]): > 128 µg/mL; MIC (Staphylococcus aureus [22]): > 128 µg/mL; MIC (Staphylococcus aureus [23]): > 128 µg/mL; MIC (Streptococcus pyogenes [24]): > 128 µg/mL; MIC (Streptococcus pneumoniae [25]): > 128 µg/mL; MIC (Staphylococcus aureus [26]): > 128 µg/mL

# Second part, led by results:
MIC (Citrobacter freundii [1]) [µg/mL],MIC (Enterobacter cloacae [2]) [µg/mL],MIC (Escherichia coli [3]) [µg/mL],MIC (Escherichia coli [4]) [µg/mL],MIC (Klebsiella pneumoniae [5]) [µg/mL],MIC (Pseudomonas aeruginosa [6]) [µg/mL],MIC (Pseudomonas aeruginosa [7]) [µg/mL],MIC (Proteus vulgaris [8]) [µg/mL],MIC (Staphylococcus aureus [9]) [µg/mL],MIC (Staphylococcus aureus [10]) [µg/mL],MIC (Staphylococcus aureus [11]) [µg/mL],MIC (Streptococcus pyogenes [12]) [µg/mL],MIC (Streptococcus pneumoniae [13]) [µg/mL],SMILES,further results
128,> 128,0.125,0.125,0.0625,> 128,16,≤ 0.0156,8,> 128,> 128,0.0313,0.0313,CO/N=C(/C(=O)NC1C(=O)N2C(C(=O)[O-])=C(CSc3nnnn3CC(=O)O)CS[C@H]12)c1csc(N)n1.[Na+] (stereo partly drawn),–
> 128,> 128,0.25,0.25,0.0625,> 128,> 128,0.0625,16,> 128,> 128,≤ 0.0157,0.0625,CO/N=C(/C(=O)NC1C(=O)N2C(C(=O)[O-])=C(CO)CS[C@H]12)c1csc(N)n1.[Na+] (stereo partly drawn),–
